# Measured values from a melting point compilation (Tetko et al.; mined from patent text by program, amines drawn as free bases though some values may be those of a salt).
row,Structure (SMILES),melting point
1,CCC(=O)Nc1nc(C(Cl)(Cl)Cl)ns1,150 °C
2,COc1ccc(C(=O)CCC(=O)O)cc1N,136 to 137 °C
3,NC(=O)c1ccc(F)c2c1C=C([N+](=O)[O-])CO2,225 to 227 °C
4,Cc1nc(-c2[nH]c3ccccc3c2C#N)no1,209 to 212 °C
5,Cc1ncc2c(c1O)COC2(C)c1ccccc1 (stereo not drawn),245 °C
6,COC(=O)c1scc(C)c1-n1cccc1,76 °C
7,CN1Cc2c(cc3ccc4c(c3c2-c2ccc3c(c2)OCO3)OCO4)C1=O,234 to 236 °C
8,O=[N+]([O-])c1cc(NC(=S)N2CCCCN2)c(F)cc1Cl,118 to 120 °C
9,CCCCCCOc1ccc(CCCCCCCCC(=O)NO)cc1,94 to 96 °C
10,Cc1nc2ccc(F)cc2[nH]1,177 to 178 °C
11,CSc1nn2c(N(C)C)cc(C)nc2c1S(=O)(=O)c1ccccc1,> 230 °C
12,CCN(CC)CC1CCN(c2c(F)cc3c(=O)c(C(=O)O)cn(CC)c3c2F)C1 (stereo not drawn),210 to 211 °C
13,CCc1cc(C(=O)O)c(OC(C)=O)cc1C,132 to 134 °C
14,CC(=O)c1cc2c(cc1C)C(C)(C)CCC2(C)C,54 to 57 °C
15,Cn1nnnc1SCCCC(=O)c1ccccc1,57.5 to 58 °C
16,COc1ccc2oc(-c3csc(C)n3)cc2c1,136 to 137 °C
17,Cc1cccc2cc(C3CCN(C)CC3)[nH]c(=O)c12,200 to 202 °C
18,O=C1CC2CCSc3sc(CCO)cc3C2=NN1 (stereo not drawn),165 to 167 °C
19,N#Cc1ccc(-c2cncc(OC3SCC(O)C(O)C3O)c2)cc1F (stereo not drawn),214 °C
20,CC(C)(C)N(O)CP(=O)(OCc1ccccc1)OCc1ccccc1,106 to 107 °C
21,CCCCCCCCCCCCCCCCCCOc1ccc(C(=O)O)c(OCCCOc2ccc(O)cc2)c1,97 to 100 °C
22,COc1ccc2c(c1)-c1noc(N3CCCNCC3)c1CC2,106 to 109 °C
23,Cc1oc(C=Cc2ccccc2Cl)nc1CC(=O)O,148 to 149 °C
24,Cn1c(COc2ccc(CC3SC(=O)N(C(c4ccccc4)(c4ccccc4)c4ccccc4)C3=O)cc2)nc2ccc(OCc3ccccc3)nc21 (stereo not drawn),88 to 92 °C

row,Structure (SMILES),melting point
1,CC1CCc2c(N3CCCCC3)c(F)cc3c(=O)c(C(=O)O)cn1c23 (stereo not drawn),258 to 261 °C
2,CCCCCCCCCCSC(=O)CS(=O)(=O)Nc1c(C(C)C)cccc1C(C)C,57 to 59 °C
3,CCOCCn1c(N2CCCN(CCC3(c4ccccn4)CCN(C(=O)c4cc(OC)c(OC)c(OC)c4)C3)CC2)nc2ccccc21 (stereo not drawn),50 to 55 °C
4,CCc1cc(O)cc(O)c1,97 to 98 °C
5,O=C(C1CCC(Nc2nccc(-n3nnc4c(-c5ccoc5)cccc43)n2)CC1)N1CCC(O)CC1 (stereo not drawn),243 to 244 °C
6,Cn1nc(-c2c(Cl)cccc2Cl)nc1-c1sc(Cl)c(Cl)c1Cl,146 to 147 °C
7,N#Cc1c(NC(=O)C2CCCCC2)sc(-c2ccccc2)c1C#N,208 to 212 °C
8,CCSc1ccccc1N1CCN([C@@H]2Cc3c(OC)ccc(OC)c3C[C@H]2O)CC1 (relative stereo),171 to 173 °C
9,CC12CC(N3CCC(O)CC3)C(O)CC1CCC1C2CCC2(C)C(O)C(N3CCC4(CC3)OCCO4)CC12 (stereo not drawn),199 to 201 °C
10,CCCCCCCCCCCCCCCC1Cc2ccc(C(=O)O)cc2N1 (racemic),119 to 122 °C
11,CCOC(=O)c1sc2ncccc2c1Br,100 to 102 °C
12,CCc1cccnc1NC(=O)OC(C)(C)C,101 to 102 °C
13,CCOC(=O)c1cc(O)cc(C(=O)OCC)c1,106 °C
14,O=C1CSC(c2cccnc2)N1 (stereo not drawn),135 to 137 °C
15,CCOC(=O)N1CC[C@@H]2CC(=O)c3cc([N+](=O)[O-])ccc3C[C@H]2C1 (relative stereo),112 to 114 °C
16,CCCCOC(=O)C(=O)Nc1cc(C#N)cc(NC(=O)C(=O)OCCCC)c1Cl,118 to 120 °C
17,CCNC(=S)NNC(=O)c1ccc(N)cc1,113 to 115 °C
18,O=S(=O)(CC1CCCC1)c1nc[nH]n1,150 to 155 °C
19,Nc1ccc(Oc2ccc([N+](=O)[O-])cc2)cn1,132 to 135 °C
20,OC12CC3CC(C1)CC(NC(c1ccccc1)(c1ccccc1)c1ccccc1)(C3)C2,184 to 186 °C
21,C=CCOc1ccc2ccc(=O)oc2c1,165 °C
22,Cc1ccc(CCCO)c(NCc2ccc3nc(NCCCN4CCOCC4)n(Cc4nc(C)c(C)nc4C)c3c2)c1,120 °C
23,CCN1C(=O)CCCc2c(OC)ccc(Nc3ncc(Cl)c(Nc4ccc(N5CCOCC5)cc4OC)n3)c21,218 to 220 °C

# Further lines, results first:
row,melting point,Structure (SMILES)
1,204 to 207 °C,Cc1cc2c(-c3ccccc3)c(CCO)n(C)c(=O)c2cc1C
2,70 °C,COc1ccc(S(=O)(=O)N(CC(F)(F)F)c2ccc(Cl)cc2Cc2c(F)cccc2F)cc1OC
3,104 °C,Cc1cc(=O)c(-c2ccc(Cl)c(Cl)c2)c(-c2ccccc2)o1
4,204 to 206 °C,O=C1Nc2ccc(S(=O)(=O)N3CCC[C@H]3COc3ccccc3)cc2C1=O
5,140 to 142 °C,COC(=O)C(N)C(C)(C)SSc1ccccc1C(=O)Nc1ccc(S(N)(=O)=O)cc1 (stereo not drawn)
6,153 to 155 °C,Brc1cnc(-c2ccc(OCc3ccccc3)cc2)nc1
7,> 300 °C,Cc1cc(NC(=O)NN(c2ccccc2)c2cccc(C(=N)N)c2)ccc1N1CCCCC1=O
8,154 °C,Cn1c(=O)n(-c2ccccc2)c(=O)n1SC(Cl)(Cl)Cl
9,103 to 105 °C,CCCc1c(OCCCCc2cccc(O)c2O)ccc(C(C)=O)c1O
10,168 to 170 °C,CCCc1cc(C(=O)NCc2ccccn2)ccc1OC(C(=O)NS(=O)(=O)c1ccc(C(C)C)cc1)c1ccc2c(c1)OCO2 (stereo not drawn)
11,258 to 260 °C,O=C(NC1CCCC1)c1ccc(-c2ccc3c(c2)CCN(CCN2CCCC2)C3=O)cc1
12,122 to 124 °C,COC(=O)[C@H](c1ccccc1Cl)N1CCc2sc(OC(=O)C=Cc3ccccc3)cc2C1
13,194 °C,COc1cc(-c2cc3ccccc3[nH]2)ccc1OS(C)(=O)=O
14,62 to 68 °C,CCC(O)(C(=O)c1ccccc1)c1ccccc1 (stereo not drawn)
15,215 to 217 °C,CSc1sc(C(=O)O)c2c1-c1sc(-c3ccccc3)cc1CC2
16,94 °C,O=C(O)CCc1ccccc1CNC(=O)C1Cc2ccccc2N1S(=O)(=O)c1ccc(-c2cccc(C(F)(F)F)c2)cc1 (stereo not drawn)
17,79 to 85 °C,O=C(Cl)c1ccc(C#Cc2ccccc2C(=O)Cl)cc1
18,204 to 205 °C,CC(C)n1nc(-c2sc(C(=O)NCc3ccccn3)nc2-c2ccc(F)cc2)ccc1=O
19,86 °C,Cc1ccccc1-c1cc(Cl)cc2c1NC(CN)CO2 (stereo not drawn)
20,282 to 283 °C,CCc1cc(Cl)cc2[nH]c(C(=O)O)cc(=O)c12
21,124 to 128 °C,Cc1cc(C)c2cccc(OCc3c(Cl)ccc(S(=O)(=O)N4CCC[C@H]4C(=O)NCCCNC(=O)COc4ccc(C=NN)cc4)c3Cl)c2n1
22,186 to 188 °C,O=C(O)[C@@H]1CC[C@H](n2nc(-c3c(-c4ccccc4)nn4ccccc34)ccc2=O)C(=O)C1 (relative stereo)
23,203 to 205 °C,O=C(Nc1ccccc1)c1cn(-c2ccccc2)c2ccccc2c1=O
24,46 to 49 °C,c1ccc(Oc2ccncc2)cc1
25,127 to 128 °C,CC(=O)NCc1ccc(CN2CCN(c3nc(C)cc(C)n3)CC2)cc1
26,234 to 235 °C,CN1C(=O)C(C(=O)Nc2nccs2)Sc2ccccc21 (stereo not drawn)

row,melting point,Structure (SMILES)
1,268 to 270 °C,CC(C)(CCc1noc(=O)[nH]1)c1ccc(C(=O)Nc2cn3cc(C(F)(F)F)ccc3n2)cc1
2,164 to 165 °C,CC(=O)Nc1cccc(OCC(O)CNCCOc2ccc(C(N)=O)cc2)c1 (stereo not drawn)
3,166 to 172 °C,ON=C1COc2cc(OCc3c(F)cccc3F)ccc21
4,163 to 165 °C,COc1cc(S(=O)(=O)c2ccncc2)ccc1N
5,133 °C,CCOC(=O)c1nn(-c2ccc(Cl)cc2Cl)c(-c2ccc(Br)cc2)c1C
6,134 to 139 °C,CCOC(=O)C1(Sc2ccccc2)Cc2ccc(N(C)C)cc2NC1=O (stereo not drawn)
7,202 to 205 °C,O=C(Nc1ccc(Br)cc1)c1ccccc1[N+](=O)[O-]
8,267 °C,O=c1[nH]c2cc(Cl)ccc2n1C1CCN(CCCn2c(=S)[nH]c3ccccc32)CC1
9,46 to 47 °C,COc1cc(CSCCNC(=O)c2c(Cl)cccc2Cl)cc(OC)c1
10,251 °C,CC(=O)Nc1ccc2c(c1)C(c1cccn1-c1cccc(Cl)c1)C(=O)N2 (stereo not drawn)
11,215 to 216 °C,NC(=O)c1c(C(=O)O)cnn1-c1cccc(F)c1
12,315 °C,O=C(O)N1CCN2c3sc4c(c3CN(c3ccccc3Cl)CC12)CC=C4 (stereo not drawn)
13,85 to 87 °C,O=S(=O)(Nc1cccc(CCOCc2sc3ccccc3c2Cl)c1)C(F)(F)F
14,126 to 127 °C,COCCOc1ccc(/C=C(\C)C(=O)O)c(Oc2ncc(Cl)cc2Cl)c1
15,240 to 241 °C,COc1cc(CN/C=C2\C(=O)NC(=O)c3ccc(-c4ccc(Cl)cc4)cc32)cc(O)c1OC
16,194 to 195 °C,CC(C(=O)O)c1ccc2oc3ncccc3c(=O)c2c1 (stereo not drawn)
17,> 250 °C,Cc1cc2c(NCc3ccc4c(c3)OCO4)nc(-c3ccc(C(=O)O)cc3)nc2s1
18,237 to 241 °C,Cc1ccc(C(=O)C2=C(O)C(=O)N(c3ncc(S(=O)(=O)N(C)C)s3)C2c2ccc(C(C)C)cc2)cc1 (stereo not drawn)
19,150 to 160 °C,Oc1ncnc2c1c(Nc1cccnc1)nn2Cc1ccccc1
20,135 to 136 °C,Cc1ccc2nc(CN3CCN(c4ccc(Cl)cc4C#N)CC3)cn2c1
21,217 to 219 °C,COc1ccc(-c2cc3cc(F)c(F)cc3[nH]2)cc1NS(=O)(=O)c1cc(Cl)cc(Cl)c1
22,227 to 230 °C,CC(C)(C)OC(=O)c1c(N)sc2c1CCOC2CN1C(=O)c2ccccc2C1=O (stereo not drawn)
23,62 to 67 °C,CCNC(=NS(=O)(=O)c1cccc(Cl)c1)N1CC(C)(C)C=N1
24,104 to 107 °C,Cc1cc(Cn2nc(C(F)(F)F)cc2C(F)(F)F)ccc1NC(=O)c1cccc(I)c1C(=O)NC(C)(C)CS(C)(=O)=O
25,189 to 191 °C,COCOc1ccc(-n2c(=O)c3c(CN(C)Cc4ccccc4)c(-c4ccc(NC(=O)NOC)cc4)sc3n(Cc3c(F)cccc3F)c2=O)cc1
